Measurements from US8518995B2, “Methods and compositions for the treatment of irritable bowel syndrome” (MediciNova, Inc., priority 2010, dated 2013).

What was measured:
[1] = tested on: subjects with the irritable bowel syndrome (IBS); assay: Effects of MN-221 on rectosigmoid motility (intraluminal pressure, systemic effects, plasma levels) in IBS subjects; format: in vivo, human
Source text: In this study, subjects with the irritable bowel syndrome (IBS) are studied with regard to the effects of MN-221 on rectosigmoid motility.
Men and women aged 24-52 years are included in the study. The diagnosis of IBS is made on the basis of the following criteria: 1) symptoms lasting more than few months; 2) abdominal pain with or without relation to meals; 3) constipation or a combination of diarrhea and constipation; 4) normal colonic barium enema and sigmoidoscopy; 5) negative test for lactose intolerance; and 6) negative finding on stool culture.
The subjects are all symptomatic at the time of the study. The subjects are taking no medications of significant importance for intestinal motility. Informed consent is obtained from each subject.
After a 12 hours fast, all subjects undergo sigmoidoscopy without air insufflations. A probe with one to three polyethylene catheters is inserted through the sigmoidoscope so that the proximal catheter is about 18-20 centimeter (cm) from the anal margin, the tip of the second catheter about 5 cm below, and the third catheter is positioned just inside the internal sphincter. An about 5-cm-long balloon surrounds each of the two distal catheters. The distal balloon is inflated with about 20 milliliter (mL) of air to prevent the device from moving in the distal direction. The balloon in the upper rectum, connected to the middle catheter, is kept inflated with about 80 ml of air in 10 of the subjects and with about 60 mL in the other 2 subjects throughout the recording sessions. Each subject has the same balloon volume during the three examinations.
Intra-luminal pressure is measured from the proximal rectal balloon and the sigmoid catheter (inside diameter, about 1.67 millimeter (mm)), which is open tipped with a side orifice of about 1.5 mm diameter.
The catheter is continuously perfused with body-temperature water at 3.5 mL/h by means of an infusion pump. Pressure is transmitted to transducers (e.g., Statham P 23 Db, Statham Instruments, Hato Ray, Puerto Rico) and recorded on a Grass RPS 7C polygraph (e.g., Grass Instrument Co., Quincy, Mass.). To determine motility, the area under the pressure curves is continuously determined by integrators (such as, e.g., Grass 7P 10). As an index of contractile activity, the total area minus the area under an estimated basal pressure line is used. The principle for motility calculation is described in detail in Abrahamsson et al. Dig Dis Sci 1983, 28, 590-594.
Motility index is expressed as kPa×min (1 kPa×min=7.5 mm Hg×min). The study is randomized and double blinded. Each subject is investigated on 3 different days with not less than 5 days between each investigation to avoid any possible influence of an earlier drug infusion. After an initial rest period of 30 minutes (min), pressure is quantified for three periods of 25 min. The first period, designated the control period, is preceded by saline infusion, 1 mL/min, for 5 min. The following two test periods are each preceded by an infusion of 0.25 mg MN-221 intravenously to a total amount of 0.50 mg on the 1st day, 1.0 mg on the 2nd day, and 5 ml placebo (plus 5 mL saline) on the 3rd day.
The blood pressure and heart rate are measured by a sphygmomanometer 10 and 25 min after the end of each drug infusion. […]
Results are expressed as the mean±SEM. […]
The plasma concentration of MN-221 is determined by liquid chromatography and mass spectrometry.

[2] = tested on: subjects suffering from IBS; assay: Effects of MN-221 on human esophageal peristalsis (manometry, heart rate, finger tremor) in IBS subjects; format: in vivo
Source text: This study investigates the inhibitory influence of beta-2-adrenergic stimulation by MN-221 on esophageal motility with little to no incidence of significant adverse side effects. In the study, esophageal peristalsis is studied in subjects suffering from IBS. The subjects have no history of gastrointestinal or cardiovascular disease. Subjects are considered to have the irritable bowel syndrome if they have an abdominal pain with or without diarrhea or constipation. Relief of pain by defecation, abdominal distension, a feeling of incomplete evacuation, and/or a response to a high-residue diet are taken as useful additional symptoms. The blood picture, erythrocyte sedimentation rate, and results of sigmoidoscopy, rectal biopsy, and barium enema are normal in all subjects. The symptoms of the subjects, including dysphagia and heartburn, are recorded on data sheets for correlation with manometric findings.
Each subject is orally given MN-221, 5 mg three times daily, for 10 days. […] At each session esophageal peristaltic pressure, heart rate, and finger tremor are assessed.
Manometric studies are performed with a triple-lumen tube with each channel perfused with water, 0.5 ml/min, via a low-compliance capillary system. […] Thus, pressure is recorded about 18 cm proximal to the LES (proximal esophagus), about 10 cm proximal to the LES (middle esophagus), and about 2 cm proximal to the LES (distal esophagus).
After a resting period of 20 min., esophageal peristalsis in response to 20 wet swallows (water bolus of 5 ml, room temperature) is recorded. […] Each recording curve is coded and read by one investigator who is not aware of the subject's study day. The amplitude of the peristaltic pressure waves is measured at each recording point, and an individual mean value for the 20 swallows is calculated for each examination.
At each session, heart rate is recorded in the resting subject and calculated as a mean value for 2 min. Finger tremor are assessed with an optical method (e.g., Opto-Tremor Graph, Draco), and the middle finger of the right hand is chosen for measurement. […]

[3] = tested on: subjects with the irritable bowel syndrome (IBS); conditions: including increase in systolic blood pressure and the heart rate; cited from earlier work
[4] = tested on: subjects suffering from IBS; conditions: including increase in the heart rate and finger tremors; cited from earlier work
[5] = during oral medication, 5 mg three times daily, 10 days

## CN(C)C(=O)COc1ccc2c(c1)CC(NCC(O)c1ccc(O)c(CCO)c1)CC2 (single isomer, unassigned; (-)) [MN-221]
[1]; after infusion of MN-221
  complaints or discomfort among the subjects: No major complaints or discomfort
[1]; after intravenous infusion, 0.50 and 1.0 mg total
  plasma concentrations: within the therapeutic levels
[1]; infusion to a total of 0.50 mg intravenously
  systolic and diastolic blood pressure and heart rate: no significant increase in the systolic blood pressure; decrease in the diastolic blood pressure; and/or increase in the heart rate
[1]; infusion to a total of 1.0 mg intravenously
  systolic and diastolic blood pressure and heart rate: no significant increase in systolic blood pressure; decrease in diastolic blood pressure; and/or increase in heart rate
[1]; intravenous infusion, IBS subjects
  adverse side effects: little to no adverse side effects
[2]; [5]
  finger tremor: do not change
  heart rate: do not change
[2]; oral medication, IBS subjects
  adverse side effects: little to no adverse side effects

## CC(C)(C)NCC(O)c1cc(O)cc(O)c1 (stereo not shown) [terbutaline]
[3]
  adverse side effects (comparison drug): undesirable incidence of significant adverse side effects
[4]
  adverse side effects (comparison drug): undesirable incidence of significant adverse side effects
